Literature values, collected in patent publication US5229370A, “Water soluble branched beta cyclodextrin steroid complex” (priority 1992, dated 1993).

Conditions: under ambient conditions; reported
In the case of `CC(=O)[C@H]1CC[C@H]2[C@@H]3CCC4=CC(=O)CC[C@]4(C)[C@H]3CC[C@]12C` [progesterone], the “solubility of steroid in water” value is given as 0.016 mg/mL. For `CC(C)CCC[C@@H](C)[C@H]1CC[C@H]2[C@@H]3CC=C4C[C@@H](O)CC[C@]4(C)[C@H]3CC[C@]12C` [cholesterol], the “solubility of steroid in water” value is listed as 0.002 mg/mL. In the case of `C[C@]12CC[C@H]3[C@@H](CCC4=CC(=O)CC[C@@]43C)[C@@H]1CC[C@@H]2O` [testosterone], the “solubility of steroid in water” value is listed as 0.040 mg/mL.
